Reference: patent US4160841A, “Heterocyclic derivatives of 1-(1,3-dioxolan-2-ylmethyl)-1H-imidazoles” (Janssen Pharmaceutica, N.V., priority 1977, dated 1979)
Where two headings read alike, the source gives them in different places.

Experiments:
[1] = tested on: Candida albicans; test: Activity of compounds (I) against vaginal candidosis in rats; assay type: in vivo, Female Wistar rats; settings: 336 h, oral once a day for two days from day of infection, active at the 14th day after infection
Experimental: Experiment A: Activity of compounds (I) against vaginal candidosis in rats Female Wistar rats of ± 100 g body weight were used. They were ovariectomized and hysterectomized and after three weeks of recovery, 100 μg of oestradiol undecylate in sesame oil was given subcutaneously once a week for 3 consecutive weeks. The thus induced pseudooestrus was controlled by microscopic examination of vaginal smears. Food and water were left available ad libitum. The rats were infected intravaginally with 8.10^5 cells of Candida albicans, grown on Sabouraud broth for 48 hours at 37° C. and diluted with saline. The date of infection varied from day +25 to day +32 after surgical intervention, depending on the appearance of signs of induced pseudo-oestrus. The drugs under investigation were administered orally once a day for two days starting from the day of infection. For each experiment there were placebo treated controls. The results were assessed by taking vaginal smears with sterile swabs on several days after the infection. The swabs were put into Sabouraud broth in petri-dishes and incubated for 48 hours at 37° C. If no growth of Candida albicans occured, i.e., when the animals were negative at the end of the experiment, this was due to drug administration because it never happened in placebo treated controls. The tables I and II below give the lowest oral dose of the drug under investigation which was found active at the 14th day after infection.

[2] = tested on: Candida albicans; test: Activity of compounds (I) against crop candidosis in turkeys; assay type: in vivo; settings: medicated feed for 13 consecutive days from day of infection, crops of 50% of animals completely negative for Candida albicans; for Crop candidosis in Turkeys: ED50 in mg/kg of feed.: Table I
Experimental: Experiment B: Activity of compounds (I) against crop candidosis in turkeys Turkeys of 14 days old were infected in the crop with 4·10^6 Candida albicans cells, grown on Sabouraud broth for 48 hours at 37° C. and diluted with saline. The volume of the inoculum was 1 ml. The drug under investigation were premixed in 500 mg of lacton and thereafter admixed in 1000 g of meal without any additives. The concentration of the drug under investigation in the meal was expressed in mg/kg. The animals were given the medicated feed for 13 consecutive days starting on the day of infection. At the end of the experiment all animals were sacrificed. At autopsy the crops were removed, emptied and grinded in an ultra-turrax mixer in 15 ml of sterile saline. Colony counting was done on Sabouraud agar and the results given in Tables I and Ii represent the ED50, i.e., the dose of the drug whereby the crops of 50% of the animals were completely negative for Candida albicans.

[3] = Table II, read-out: Vagingal candidosis in rats: lowest effective dose
[4] = Table I, read-out: Vaginal candidosis in rats: lowest effective dose

Row | SMILES | minimal effective dose [1, 3] [mg/kg] | Crop candidosis in Turkeys: ED50 in mg/kg in feed ([2]; Table II) [mg/kg in feed] | minimal effective dose [1, 4] [mg/kg] | Crop candidosis in Turkeys: ED50 in mg/kg of feed. [2]
1 | Clc1ccc(C2(Cn3ccnc3)OCC(COc3cccc(-n4ccnc4)c3)O2)c(Cl)c1 (stereo not drawn) | 2.5 |  |  | 
2 | Clc1ccc(C2(Cn3cncn3)OCC(COc3ccc(-n4ccnc4)cc3)O2)c(Cl)c1 (stereo not drawn) | 1.25 | 8 |  | 
3 | Clc1ccc([C@@]2(Cn3ccnc3)OC[C@H](COc3ccc(-n4ccnc4)cc3)O2)c(Cl)c1 (relative stereo) |  |  | 1.25 | 8 mg/kg of feed
4 | Clc1ccc([C@@]2(Cn3ccnc3)OC[C@H](COc3ccc(-n4cncn4)cc3)O2)c(Cl)c1 (relative stereo) |  |  | 1.25 | 16 mg/kg of feed
5 | Clc1ccc([C@@]2(Cn3ccnc3)OC[C@H](COc3ccc(-n4cccc4)cc3)O2)c(Cl)c1 (relative stereo) |  |  | 2.5 | 125 mg/kg of feed
6 | Clc1ccc([C@@]2(Cn3ccnc3)OC[C@H](COc3ccc(-n4cccn4)cc3)O2)c(Cl)c1 (relative stereo) |  |  | 2.5 | 16 mg/kg of feed
7 | Cc1nccn1-c1ccc(OC[C@H]2CO[C@](Cn3ccnc3)(c3ccc(Cl)cc3Cl)O2)cc1 (relative stereo) |  |  | 10 | 125 mg/kg of feed
8 | Clc1ccc([C@@]2(Cn3ccnc3)OC[C@H](COc3ccc(-n4ccnc4-c4ccccc4)cc3)O2)c(Cl)c1 (relative stereo) |  |  | 5 | 125 mg/kg of feed
9 | Cc1n[nH]c(=O)n1-c1ccc(OC[C@H]2CO[C@](Cn3ccnc3)(c3ccc(Cl)cc3Cl)O2)cc1 (relative stereo) |  |  | < 10 | 
10 | CCCn1ncn(-c2ccc(OC[C@H]3CO[C@](Cn4ccnc4)(c4ccc(Cl)cc4Cl)O3)cc2)c1=O (relative stereo) |  |  | < 10 | 
11 | CC(C)n1ncn(-c2ccc(OC[C@H]3CO[C@](Cn4ccnc4)(c4ccc(Cl)cc4Cl)O3)cc2)c1=O (relative stereo) |  |  | < 10 | 
12 | Cc1nn(C)c(=O)n1-c1ccc(OC[C@H]2CO[C@](Cn3ccnc3)(c3ccc(Cl)cc3Cl)O2)cc1 (relative stereo) |  |  | 1.25 | 
13 | Cc1nn(C(C)C)c(=O)n1-c1ccc(OC[C@H]2CO[C@](Cn3ccnc3)(c3ccc(Cl)cc3Cl)O2)cc1 (relative stereo) |  |  | 5 | 
14 | CCn1ncn(-c2ccc(OC[C@H]3CO[C@](Cn4ccnc4)(c4ccc(Cl)cc4Cl)O3)cc2)c1=O (relative stereo) |  |  | 5 | 31 mg/kg of feed
15 | CCn1nc(C)n(-c2ccc(OC[C@H]3CO[C@](Cn4ccnc4)(c4ccc(Cl)cc4Cl)O3)cc2)c1=O (relative stereo) |  |  | 2.5 | 
16 | Sc1nnnn1-c1ccc(OC[C@H]2CO[C@](Cn3ccnc3)(c3ccc(Cl)cc3Cl)O2)cc1 (relative stereo) |  |  | 2.5 | 
17 | CSc1nncn1-c1ccc(OC[C@H]2CO[C@](Cn3ccnc3)(c3ccc(Cl)cc3Cl)O2)cc1 (relative stereo) |  |  | 10 | 8 mg/kg of feed
18 | CCSc1nccn1-c1ccc(OC[C@H]2CO[C@](Cn3ccnc3)(c3ccc(Cl)cc3Cl)O2)cc1 (relative stereo) |  |  | 5 | 

Row | SMILES | minimal effective dose [1, 3] [mg/kg] | Crop candidosis in Turkeys: ED50 in mg/kg in feed ([2]; Table II) [mg/kg in feed] | minimal effective dose [1, 4] [mg/kg] | Crop candidosis in Turkeys: ED50 in mg/kg of feed. [2]
19 | CSc1nccn1-c1ccc(OC[C@H]2CO[C@](Cn3ccnc3)(c3ccc(Cl)cc3Cl)O2)cc1 (relative stereo) |  |  | 5 | 31 mg/kg of feed
20 | CCCSc1nccn1-c1ccc(OC[C@H]2CO[C@](Cn3ccnc3)(c3ccc(Cl)cc3Cl)O2)cc1 (relative stereo) |  |  | 5 | 31 mg/kg of feed
21 | CC(C)Sc1nccn1-c1ccc(OC[C@H]2CO[C@](Cn3ccnc3)(c3ccc(Cl)cc3Cl)O2)cc1 (relative stereo) |  |  |  | 31 mg/kg of feed
22 | CSc1ncc(C)n1-c1ccc(OC[C@H]2CO[C@](Cn3ccnc3)(c3ccc(Cl)cc3Cl)O2)cc1 (relative stereo) |  |  |  | 31 mg/kg of feed
23 | CSc1ncn(-c2ccc(OC[C@H]3CO[C@](Cn4ccnc4)(c4ccc(Cl)cc4Cl)O3)cc2)n1 (relative stereo) |  |  | 1.25 | 16 mg/kg of feed
24 | Clc1ccc([C@@]2(Cn3ccnc3)OC[C@H](COc3ccc(-n4ncnc4-c4ccccc4)cc3)O2)c(Cl)c1 (relative stereo) |  |  | 10 | 
25 | CSc1nc(C)n(-c2ccc(OC[C@H]3CO[C@](Cn4ccnc4)(c4ccc(Cl)cc4Cl)O3)cc2)n1 (relative stereo) |  |  | 2.5 | 
26 | Cc1ccn(-c2ccc(OC[C@H]3CO[C@](Cn4ccnc4)(c4ccc(Cl)cc4Cl)O3)cc2)n1 (relative stereo) |  |  | 2.5 | 
27 | CSc1nnc(C)n1-c1ccc(OC[C@H]2CO[C@](Cn3ccnc3)(c3ccc(Cl)cc3Cl)O2)cc1 (relative stereo) |  |  | 2.5 | 
28 | Cc1ncnn1-c1ccc(OC[C@H]2CO[C@](Cn3ccnc3)(c3ccc(Cl)cc3Cl)O2)cc1 (relative stereo) |  |  | 1.25 | 8 mg/kg of feed
29 | CS(=O)(=O)c1nccn1-c1ccc(OC[C@H]2CO[C@](Cn3ccnc3)(c3ccc(Cl)cc3Cl)O2)cc1 (relative stereo) |  |  | 5 | 
30 | CCOc1nncn1-c1ccc(OC[C@H]2CO[C@](Cn3ccnc3)(c3ccc(Cl)cc3Cl)O2)cc1 (relative stereo) |  |  | 2.5 | 31 mg/kg of feed
31 | CCc1ncnn1-c1ccc(OC[C@H]2CO[C@](Cn3ccnc3)(c3ccc(Cl)cc3Cl)O2)cc1 (relative stereo) |  |  | 5 | 8 mg/kg of feed
32 | C[S+]([O-])c1nncn1-c1ccc(OC[C@H]2CO[C@](Cn3ccnc3)(c3ccc(Cl)cc3Cl)O2)cc1 (relative stereo) |  |  | 2.5 | 
33 | Cc1nnc([S+](C)[O-])n1-c1ccc(OC[C@H]2CO[C@](Cn3ccnc3)(c3ccc(Cl)cc3Cl)O2)cc1 (relative stereo) |  |  | 10 | 16 mg/kg of feed
34 | Clc1ccc([C@@]2(Cn3ccnc3)OC[C@H](COc3ccc(-n4cnnn4)cc3)O2)c(Cl)c1 (relative stereo) |  |  |  | 31 mg/kg of feed
35 | COc1ccc([C@@]2(Cn3ccnc3)OC[C@H](COc3ccc(-n4ccnc4)cc3)O2)cc1 (relative stereo) | 5 |  |  | 
